In the test the target is Recombinant human cathepsin S (CatS) (Homo sapiens, UniProt P25774). The experiment in a line: Recombinant human cathepsin S (CatS) inhibition assay, fluorogenic substrate Z-Valine-Valine-Arginine-AMC.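 Note: Baculovirus-expressed CatS in pH 5.0 sodium acetate buffer with DTT and NaCl, fluorescence read each minute over 20 min, inhibition derived from rate slope.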

Read-outs that look alike come from different tables or passages of the source.

Recombinant human cathepsin S (CatS), sequence (P25774 115-331): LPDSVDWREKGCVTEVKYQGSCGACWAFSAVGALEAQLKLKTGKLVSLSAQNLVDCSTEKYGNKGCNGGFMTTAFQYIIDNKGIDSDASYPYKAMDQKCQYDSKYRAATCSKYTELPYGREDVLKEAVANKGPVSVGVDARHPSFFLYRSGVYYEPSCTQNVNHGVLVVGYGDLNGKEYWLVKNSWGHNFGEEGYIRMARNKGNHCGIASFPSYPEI

Consider `CC1CCN(CCCn2nc(-c3ccc(Cl)c(C#Cc4ccc(CNCc5ccc(Cl)cc5)cc4)c3)c3c2CCN(S(C)(=O)=O)C3)CC1` [Example 344, 1-{4-[(2-Chloro-5-{1-[3-(4-methylpiperidin-1-yl)propyl]-5-(methylsulfonyl)-4,5,6,7-tetrahydro-1H-pyrazolo[4,3-c]pyridin-3-yl}phenyl)ethynyl]phenyl}-N-[(4-chlorophenyl)methyl]methanamine], for which the IC50 (usually the midpoint of a concentration-inhibition curve) (CatS IC50) was 60 nM.
With `CC(C)(C)OC(=O)N1CCC(C2CCN(C[C@H](O)Cn3nc(-c4ccc(Cl)c(C#CC5CCCCC5)c4)c4c3CCN(S(C)(=O)=O)C4)CC2)CC1` [Example 233, 1,1-Dimethylethyl 1′-[(2S)-3-{3-[4-chloro-3-(cyclohexylethynyl)phenyl]-5-(methylsulfonyl)-4,5,6,7-tetrahydro-1H-pyrazolo[4,3-c]pyridin-1-yl}-2-hydroxypropyl]-4,4′-bipiperidine-1-carboxylate], the IC50 worked out at 7920 nM.
Regarding `CS(=O)(=O)N1CCc2c(c(-c3ccc(Cl)c(C#Cc4ccc(CN[C@@H]5Cc6ccccc6[C@@H]5O)cc4)c3)nn2CCCN2CCOCC2)C1` [Example 445, (1S,2R)-2-({[4-({2-Chloro-5-[5-(methylsulfonyl)-1-(3-morpholin-4-ylpropyl)-4,5,6,7-tetrahydro-1H-pyrazolo[4,3-c]pyridin-3-yl]phenyl}ethynyl)phenyl]methyl}amino)-2,3-dihydro-1H-inden-1-ol], the IC50 was determined as 200 nM.
Same read-out and setting: for `CC(C)(C)OC(=O)N1CCc2ccc(C#Cc3cc(-c4nn(CC(O)CN5CCC(C(N)=O)CC5)c5c4CN(S(C)(=O)=O)CC5)ccc3Cl)cc2C1` (stereo not shown) [Example 373, 1,1-Dimethylethyl 7-({5-[1-{3-[4-(aminocarbonyl)piperidin-1-yl]-2-hydroxypropyl}-5-(methylsulfonyl)-4,5,6,7-tetrahydro-1H-pyrazolo[4,3-c]pyridin-3-yl]-2-chlorophenyl}ethynyl)-3,4-dihydroisoquinoline-2(1H)-carboxylate] the value was 170 nM; for `CS(=O)(=O)N1CCc2c(c(-c3ccc(Cl)c(C#Cc4ccc(CNCc5ccc(Cl)cc5)cc4)c3)nn2CCCN2CCN(c3ccc(O)cc3)CC2)C1` [Example 410, 4-(4-{3-[3-(4-Chloro-3-{[4-({[(4-chlorophenyl)methyl]amino}methyl)phenyl]ethynyl}phenyl)-5-(methylsulfonyl)-4,5,6,7-tetrahydro-1H-pyrazolo[4,3-c]pyridin-1-yl]propyl}piperazin-1-yl)phenol], 40 nM.
For `CS(=O)(=O)N1CCc2c(c(-c3ccc(Cl)c(C#Cc4cccc(CNCCCO)c4)c3)nn2CCCN2CCOCC2)C1` [Example 509, 3-({[3-({2-Chloro-5-[5-(methylsulfonyl)-1-(3-morpholin-4-ylpropyl)-4,5,6,7-tetrahydro-1H-pyrazolo[4,3-c]pyridin-3-yl]phenyl}ethynyl)phenyl]methyl}amino)propan-1-ol], the IC50 (CatS IC50) is 500 nM.
Consider `C[C@H]1COCCN1CCCn1nc(-c2ccc(Cl)c(C#Cc3ccc(Cl)c(CNCC(C)(C)O)c3)c2)c2c1CCN(C(=O)C(N)=O)C2` [Example 561, 2-(3-{4-Chloro-3-[(4-chloro-3-{[(2-hydroxy-2-methylpropyl)amino]methyl}phenyl)ethynyl]phenyl}-1-{3-[(3S)-3-methylmorpholin-4-yl]propyl}-1,4,6,7-tetrahydro-5H-pyrazolo[4,3-c]pyridin-5-yl)-2-oxoacetamide], for which the IC50 is 30 nM.
Turning to `COC(=O)[C@H]1Cc2ccc(C#Cc3cc(-c4nn(CCCN5CCOCC5)c5c4CN(S(C)(=O)=O)CC5)ccc3Cl)cc2CN1` [Example 200, Methyl (3R)-7-({2-chloro-5-[5-(methylsulfonyl)-1-(3-morpholin-4-ylpropyl)-4,5,6,7-tetrahydro-1H-pyrazolo[4,3-c]pyridin-3-yl]phenyl}ethynyl)-1,2,3,4-tetrahydroisoquinoline-3-carboxylate], the IC50 (CatS IC50) was found to be 90 nM.
For `CS(=O)(=O)N1CCc2c(c(-c3ccc(Cl)c(C#Cc4ccc(CNCc5ccc(Cl)cc5)cc4)c3)nn2CCCN2CCN(c3cccnc3)CC2)C1` [Example 417, 1-{4-[(2-Chloro-5-{5-(methylsulfonyl)-1-[3-(4-pyridin-3-ylpiperazin-1-yl)propyl]-4,5,6,7-tetrahydro-1H-pyrazolo[4,3-c]pyridin-3-yl}phenyl)ethynyl]phenyl}-N-[(4-chlorophenyl)methyl]methanamine], for the setting “CatS IC50”, the IC50 was found to be 20 nM.
Regarding `NC(=O)C(=O)N1CCc2c(c(-c3ccc(Cl)c(C#Cc4ccc(Cl)c(C(=O)NCCN5CCOCC5)c4)c3)nn2CCCN2CCSCC2)C1` [Example 581, 5-[(5-{5-[Amino(oxo)acetyl]-1-(3-thiomorpholin-4-ylpropyl)-4,5,6,7-tetrahydro-1H-pyrazolo[4,3-c]pyridin-3-yl}-2-chlorophenyl)ethynyl]-2-chloro-N-(2-morpholin-4-ylethyl)benzamide], the IC50 was found to be 30 nM.
Consider `NC(=O)C(=O)N1CCc2c(c(-c3ccc(Cl)c(C#Cc4ccc(Cl)c(CNC5CCCC5)c4)c3)nn2CCCN2CCCCC2)C1` [Example 595, 2-{3-[4-Chloro-3-({4-chloro-3-[(cyclopentylamino)methyl]phenyl}ethynyl)phenyl]-1-(3-piperidin-1-ylpropyl)-1,4,6,7-tetrahydro-5H-pyrazolo[4,3-c]pyridin-5-yl}-2-oxoacetamide], for which the IC50 (CatS IC50) was 10 nM.
As to `CS(=O)(=O)c1cccc(S(=O)(=O)NCCCc2cc(-c3nn(CCCN4CCC(N5CCCC5=O)CC4)c4c3CN(S(C)(=O)=O)CC4)ccc2Cl)c1` [Example 99, N-{3-[2-Chloro-5-(5-methanesulfonyl-1-{3-[4-(2-oxo-pyrrolidin-1-yl)-piperidin-1-yl]-propyl}-4,5,6,7-tetrahydro-1H-pyrazolo[4,3-c]pyridin-3-yl)-phenyl]-propyl}-3-methanesulfonyl-benzenesulfonamide], the IC50 is 2450 nM.
As to `CN(Cc1ccc(Cl)cc1)Cc1ccc(C#Cc2cc(-c3nn(CCCN4CCSCC4)c4c3CN(S(C)(=O)=O)CC4)ccc2Cl)cc1` [Example 503, 1-[4-({2-Chloro-5-[5-(methylsulfonyl)-1-(3-thiomorpholin-4-ylpropyl)-4,5,6,7-tetrahydro-1H-pyrazolo[4,3-c]pyridin-3-yl]phenyl}ethynyl)phenyl]-N-[(4-chlorophenyl)methyl]-N-methylmethanamine], for the setting “CatS IC50”, the IC50 came to 660 nM.
With `CS(=O)(=O)N1CCc2c(c(-c3ccc(Cl)c(C#Cc4ccc(CN[C@@H](CO)c5ccccc5)cc4)c3)nn2CCCN2CCC(N3CCCC3=O)CC2)C1` [Example 352, 1-(1-{3-[3-(4-Chloro-3-{[4-({[(1R)-2-hydroxy-1-phenylethyl]amino}methyl)phenyl]ethynyl}phenyl)-5-(methylsulfonyl)-4,5,6,7-tetrahydro-1H-pyrazolo[4,3-c]pyridin-1-yl]propyl}piperidin-4-yl)pyrrolidin-2-one], the IC50 is 20 nM.
As for `CS(=O)(=O)N1CCc2c(c(-c3ccc(Cl)c(CCCN)c3)nn2CCCN2CCC(N3CCCC3=O)CC2)C1` [Example 308, 1-[1-(3-{3-[3-(3-Aminopropyl)-4-chlorophenyl]-5-(methylsulfonyl)-4,5,6,7-tetrahydro-1H-pyrazolo[4,3-c]pyridin-1-yl}propyl)piperidin-4-yl]pyrrolidin-2-one], the IC50 is 5650 nM.
For the compound `CC(C)(C)OC(=O)N1CCC(C2CCN(C[C@H](O)Cn3nc(-c4ccc(Cl)c(C#CCc5ccccc5)c4)c4c3CCN(S(C)(=O)=O)C4)CC2)CC1` [Example 232, 1,1-Dimethylethyl 1′-[(2S)-3-{3-[4-chloro-3-(3-phenylprop-1-yn-1-yl)phenyl]-5-(methylsulfonyl)-4,5,6,7-tetrahydro-1H-pyrazolo[4,3-c]pyridin-1-yl}-2-hydroxypropyl]-4,4′-bipiperidine-1-carboxylate], the IC50 (CatS IC50) was found to be 1530 nM.
Take `CS(=O)(=O)N1CCc2c(c(-c3ccc(Cl)c(C#Cc4ccc5c(c4)CCNC5)c3)nn2CCCN2CCOCC2)C1` [Example 365, 6-({2-Chloro-5-[5-(methylsulfonyl)-1-(3-morpholin-4-ylpropyl)-4,5,6,7-tetrahydro-1H-pyrazolo[4,3-c]pyridin-3-yl]phenyl}ethynyl)-1,2,3,4-tetrahydroisoquinoline]: the IC50 is 280 nM.
In the case of `CS(=O)(=O)N1CCc2c(c(-c3ccc(Cl)c(C#Cc4ccc(NCCc5ccccc5)cc4)c3)nn2CCCN2CCOCC2)C1` [Example 327, 4-({2-Chloro-5-[5-(methylsulfonyl)-1-(3-morpholin-4-ylpropyl)-4,5,6,7-tetrahydro-1H-pyrazolo[4,3-c]pyridin-3-yl]phenyl}ethynyl)-N-(2-phenylethyl)aniline], the IC50 (CatS IC50) turned out to be 760 nM.
Take `CS(=O)(=O)N1CCc2c(c(-c3ccc(Cl)c(C#Cc4ccc(CNCc5ccc(Cl)cc5)cc4)c3)nn2C[C@H](O)CN2CCOCC2)C1` [Example 264, (R)-1-[3-(4-Chloro-3-{4-[(4-chloro-benzylamino)-methyl]-phenylethynyl}-phenyl)-5-methanesulfonyl-4,5,6,7-tetrahydro-pyrazolo[4,3-c]pyridin-1-yl]-3-morpholin-4-yl-propan-2-ol]: the IC50 was 370 nM.
Take `CS(=O)(=O)N1CCc2c(c(-c3ccc(Cl)c(CCc4ccc(Cl)cc4)c3)nn2C[C@@H](O)CN2CCC(C3CCNCC3)CC2)C1` [Example 246, (2S)-1-(4,4′-Bipiperidin-1-yl)-3-[3-{4-chloro-3-[2-(4-chlorophenyl)ethyl]phenyl}-5-(methylsulfonyl)-4,5,6,7-tetrahydro-1H-pyrazolo[4,3-c]pyridin-1-yl]propan-2-ol]: the IC50 stood at 10 nM.
Turning to `COc1ccc(CNCc2ccc(C#Cc3cc(-c4nn(CCCN5CCSCC5)c5c4CN(C(N)=O)CC5)ccc3Cl)cc2)cc1` [Example 538, 3-[4-Chloro-3-({4-[({[4-(methyloxy)phenyl]methyl}amino)methyl]phenyl}ethynyl)phenyl]-1-(3-thiomorpholin-4-ylpropyl)-1,4,6,7-tetrahydro-5H-pyrazolo[4,3-c]pyridine-5-carboxamide], for the setting “CatS IC50”, the IC50 was 110 nM.
For `C[C@H]1COCCN1CCCn1nc(-c2ccc(Cl)c(C#Cc3ccc(CNCc4ccc(Cl)cc4)cc3)c2)c2c1CCN(C(N)=O)C2` [Example 401, 3-(4-Chloro-3-{[4-({[(4-chlorophenyl)methyl]amino}methyl)phenyl]ethynyl}phenyl)-1-{3-[(3S)-3-methylmorpholin-4-yl]propyl}-1,4,6,7-tetrahydro-5H-pyrazolo[4,3-c]pyridine-5-carboxamide], for the setting “CatS IC50”, the IC50 was 110 nM.

The values are drawn from US20080200454A1, “CARBON-LINKED TETRAHYDRO-PYRAZOLO-PYRIDINE MODULATORS OF CATHEPSIN S” (priority 2007, published 2008).
